From PubChem BioAssay (NCI)
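The compound was tested at five concentrations on cells cultured in 96-well plates, with a 48-hour exposure period. TGI is the concentration that stops growth completely.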

Experiments:
Test in all cases: DTP human tumour cell line panel, 48 h
A498 renal = system: A498 renal
A549 NSCLC = system: A549 NSCLC
ACHN renal = system: ACHN renal
BT-549 breast = system: BT-549 breast
CAKI-1 renal = system: CAKI-1 renal
CCRF-CEM leukemia = system: CCRF-CEM leukemia
COLO 205 colon = system: COLO 205 colon
DU-145 prostate = system: DU-145 prostate
EKVX NSCLC = system: EKVX NSCLC
HCC-2998 colon = system: HCC-2998 colon
HCT-116 colon = system: HCT-116 colon
HCT-15 colon = system: HCT-15 colon
HL-60(TB) leukemia = system: HL-60(TB) leukemia
HOP-62 NSCLC = system: HOP-62 NSCLC
HS 578T breast = system: HS 578T breast
HT29 colon = system: HT29 colon
IGROV1 ovarian = system: IGROV1 ovarian
K-562 leukemia = system: K-562 leukemia
KM12 colon = system: KM12 colon
LOX IMVI melanoma = system: LOX IMVI melanoma
M14 melanoma = system: M14 melanoma
MALME-3M melanoma = system: MALME-3M melanoma
MCF7 breast = system: MCF7 breast
MDA-MB-231 breast = system: MDA-MB-231 breast
MDA-MB-435 = system: MDA-MB-435
MDA-N = system: MDA-N
MOLT-4 leukemia = system: MOLT-4 leukemia
NCI-H23 lung = system: NCI-H23 lung
NCI-H460 lung = system: NCI-H460 lung
NCI-H522 lung = system: NCI-H522 lung
NCI/ADR-RES ovarian = system: NCI/ADR-RES ovarian
OVCAR-3 ovarian = system: OVCAR-3 ovarian
OVCAR-4 ovarian = system: OVCAR-4 ovarian
OVCAR-5 ovarian = system: OVCAR-5 ovarian
OVCAR-8 ovarian = system: OVCAR-8 ovarian
PC-3 prostate = system: PC-3 prostate
RPMI-8226 leukemia = system: RPMI-8226 leukemia
RXF 393 renal = system: RXF 393 renal
SF-268 CNS = system: SF-268 CNS
SF-295 CNS = system: SF-295 CNS
SF-539 CNS = system: SF-539 CNS
SK-MEL-2 melanoma = system: SK-MEL-2 melanoma
SK-MEL-28 melanoma = system: SK-MEL-28 melanoma
SK-MEL-5 melanoma = system: SK-MEL-5 melanoma
SK-OV-3 ovarian = system: SK-OV-3 ovarian
SN12C renal = system: SN12C renal
SNB-19 CNS = system: SNB-19 CNS
SNB-75 CNS = system: SNB-75 CNS
SW-620 colon = system: SW-620 colon
T-47D breast = system: T-47D breast
TK-10 renal = system: TK-10 renal
U251 CNS = system: U251 CNS
UACC-257 melanoma = system: UACC-257 melanoma
UACC-62 melanoma = system: UACC-62 melanoma
UO-31 renal = system: UO-31 renal
786-0 renal = system: 786-0 renal
HOP-92 NSCLC = system: HOP-92 NSCLC
NCI-H226 lung = system: NCI-H226 lung

O=C(O)c1cccc2cccc(-c3c4ccc(=O)cc-4oc4cc(O)ccc34)c12
TGI (A498 renal): > 100 µM
TGI (A549 NSCLC): > 100 µM
TGI (ACHN renal): > 100 µM
TGI (BT-549 breast): > 100 µM
TGI (CAKI-1 renal): > 100 µM
TGI (CCRF-CEM leukemia): > 100 µM
TGI (COLO 205 colon): > 100 µM
TGI (DU-145 prostate): > 100 µM
TGI (EKVX NSCLC): > 100 µM
TGI (HCC-2998 colon): > 100 µM
TGI (HCT-116 colon): > 100 µM
TGI (HCT-15 colon): > 100 µM
TGI (HL-60(TB) leukemia): > 100 µM
TGI (HOP-62 NSCLC): 37.2 µM
TGI (HS 578T breast): > 100 µM
TGI (HT29 colon): > 100 µM
TGI (IGROV1 ovarian): > 100 µM
TGI (K-562 leukemia): > 100 µM
TGI (KM12 colon): > 100 µM
TGI (LOX IMVI melanoma): > 100 µM
TGI (M14 melanoma): > 100 µM
TGI (MALME-3M melanoma): > 100 µM
TGI (MCF7 breast): > 100 µM
TGI (MDA-MB-231 breast): > 100 µM
TGI (MDA-MB-435): > 100 µM
TGI (MDA-N): > 100 µM
TGI (MOLT-4 leukemia): > 100 µM
TGI (NCI-H23 lung): > 100 µM
TGI (NCI-H460 lung): > 100 µM
TGI (NCI-H522 lung): > 100 µM
TGI (NCI/ADR-RES ovarian): > 100 µM
TGI (OVCAR-3 ovarian): 54.1 µM
TGI (OVCAR-4 ovarian): > 100 µM
TGI (OVCAR-5 ovarian): > 100 µM
TGI (OVCAR-8 ovarian): > 100 µM
TGI (PC-3 prostate): > 100 µM
TGI (RPMI-8226 leukemia): > 100 µM
TGI (RXF 393 renal): > 100 µM
TGI (SF-268 CNS): > 100 µM
TGI (SF-295 CNS): > 100 µM
TGI (SF-539 CNS): > 100 µM
TGI (SK-MEL-2 melanoma): > 100 µM
TGI (SK-MEL-28 melanoma): > 100 µM
TGI (SK-MEL-5 melanoma): > 100 µM
TGI (SK-OV-3 ovarian): > 100 µM
TGI (SN12C renal): > 100 µM
TGI (SNB-19 CNS): > 100 µM
TGI (SNB-75 CNS): > 100 µM
TGI (SW-620 colon): > 100 µM
TGI (T-47D breast): > 100 µM
TGI (TK-10 renal): > 100 µM
TGI (U251 CNS): > 100 µM
TGI (UACC-257 melanoma): > 100 µM
TGI (UACC-62 melanoma): > 100 µM
TGI (UO-31 renal): > 100 µM

Cc1nn(C2OC(CO)C(O)C(F)C2O)c(=O)[nH]c1=O (configuration not stated)
TGI (786-0 renal): > 100 µM
TGI (A498 renal): > 100 µM
TGI (A549 NSCLC): > 100 µM
TGI (ACHN renal): > 100 µM
TGI (BT-549 breast): > 100 µM
TGI (CAKI-1 renal): > 100 µM
TGI (CCRF-CEM leukemia): > 100 µM
TGI (COLO 205 colon): > 100 µM
TGI (DU-145 prostate): > 100 µM
TGI (HCC-2998 colon): > 100 µM
TGI (HCT-116 colon): > 100 µM
TGI (HCT-15 colon): > 100 µM
TGI (HL-60(TB) leukemia): > 100 µM
TGI (HOP-92 NSCLC): > 100 µM
TGI (HS 578T breast): > 100 µM
TGI (HT29 colon): > 100 µM
TGI (K-562 leukemia): > 100 µM
TGI (LOX IMVI melanoma): > 100 µM
TGI (M14 melanoma): > 100 µM
TGI (MALME-3M melanoma): > 100 µM
TGI (MCF7 breast): > 100 µM
TGI (MDA-MB-231 breast): > 100 µM
TGI (MDA-MB-435): > 100 µM
TGI (MDA-N): > 100 µM
TGI (MOLT-4 leukemia): > 100 µM
TGI (NCI-H226 lung): > 100 µM
TGI (NCI-H23 lung): > 100 µM
TGI (NCI-H460 lung): > 100 µM
TGI (NCI-H522 lung): > 100 µM
TGI (NCI/ADR-RES ovarian): > 100 µM
TGI (OVCAR-3 ovarian): > 100 µM
TGI (OVCAR-4 ovarian): > 100 µM
TGI (OVCAR-5 ovarian): > 100 µM
TGI (OVCAR-8 ovarian): > 100 µM
TGI (PC-3 prostate): > 100 µM
TGI (RPMI-8226 leukemia): > 100 µM
TGI (SF-268 CNS): > 100 µM
TGI (SF-295 CNS): > 100 µM
TGI (SF-539 CNS): > 100 µM
TGI (SK-MEL-2 melanoma): > 100 µM
TGI (SK-MEL-28 melanoma): > 100 µM
TGI (SK-MEL-5 melanoma): > 100 µM
TGI (SK-OV-3 ovarian): > 100 µM
TGI (SN12C renal): > 100 µM
TGI (SNB-19 CNS): > 100 µM
TGI (SW-620 colon): > 100 µM
TGI (T-47D breast): > 100 µM
TGI (TK-10 renal): > 100 µM
TGI (U251 CNS): > 100 µM
TGI (UACC-257 melanoma): > 100 µM
TGI (UACC-62 melanoma): > 100 µM
TGI (UO-31 renal): > 100 µM

CC(C)(C)C(=O)N(C(=S)OCc1ccccn1)c1ccccc1
TGI (786-0 renal): > 100 µM
TGI (A498 renal): > 100 µM
TGI (ACHN renal): > 100 µM
TGI (BT-549 breast): > 100 µM
TGI (CAKI-1 renal): > 100 µM
TGI (CCRF-CEM leukemia): 68 µM
TGI (COLO 205 colon): 49.6 µM
TGI (DU-145 prostate): > 100 µM
TGI (EKVX NSCLC): 57.7 µM
TGI (HCT-116 colon): 52.3 µM
TGI (HCT-15 colon): 85.2 µM
TGI (HL-60(TB) leukemia): 64.8 µM
TGI (HOP-62 NSCLC): 46.8 µM
TGI (HS 578T breast): > 100 µM
TGI (HT29 colon): > 100 µM
TGI (IGROV1 ovarian): 54.3 µM
TGI (K-562 leukemia): > 100 µM
TGI (KM12 colon): 71.4 µM
TGI (LOX IMVI melanoma): 51.6 µM
TGI (M14 melanoma): > 100 µM
TGI (MALME-3M melanoma): 44.6 µM
TGI (MCF7 breast): 61.5 µM
TGI (MDA-MB-231 breast): > 100 µM
TGI (MDA-MB-435): > 100 µM
TGI (MDA-N): > 100 µM
TGI (MOLT-4 leukemia): 62.4 µM
TGI (NCI-H226 lung): > 100 µM
TGI (NCI-H23 lung): > 100 µM
TGI (NCI/ADR-RES ovarian): 91.8 µM
TGI (OVCAR-3 ovarian): > 100 µM
TGI (OVCAR-5 ovarian): > 100 µM
TGI (OVCAR-8 ovarian): > 100 µM
TGI (PC-3 prostate): > 100 µM
TGI (RPMI-8226 leukemia): 58.7 µM
TGI (RXF 393 renal): 63.9 µM
TGI (SF-268 CNS): > 100 µM
TGI (SF-539 CNS): 46.3 µM
TGI (SK-MEL-2 melanoma): 70.5 µM
TGI (SK-MEL-28 melanoma): > 100 µM
TGI (SK-MEL-5 melanoma): 46.6 µM
TGI (SK-OV-3 ovarian): > 100 µM
TGI (SN12C renal): > 100 µM
TGI (SNB-19 CNS): > 100 µM
TGI (SW-620 colon): > 100 µM
TGI (T-47D breast): 63.5 µM
TGI (TK-10 renal): > 100 µM
TGI (U251 CNS): > 100 µM
TGI (UACC-257 melanoma): > 100 µM
TGI (UACC-62 melanoma): > 100 µM
TGI (UO-31 renal): 84.3 µM
